Assay results published in PMC9962402, “Fast and Simple Liquid Chromatography-Isotope Dilution Tandem Mass Spectrometry Method for Therapeutic Drug Monitoring of Dalbavancin in Long-Term Treatment of Subacute and/or Chronic Infections” (Pharmaceutics, 2023).

How the values were obtained:
[1] = human; cited from earlier work
[2] = Freeze-thaw stability of DBV in plasma samples
Procedure: Stability of DBV was assessed by comparing the nominal concentrations of LQC, MQC and HQC with those observed under two different conditions: • sample extracts kept on board at 10 °C for 24 h and frozen at −80 °C for 24 h; • plasma samples analyzed after three complete freeze and thaw cycles (from −80 °C to 25 °C).
Stability in the above operating conditions was deemed suitable if DBV concentrations were within ±15% of the nominal value.

[3] = Stability of DBV in sample extracts (autosampler, freezer); assay type: physicochemical; conditions: for Avg Accuracy (Bias%): vs nominal concentration, LC-MS/MS
[4] = human, in vivo
Procedure: Plasma samples (3 μL) were added to 47 μL of ultrapure water to achieve a dilution factor of 17 and then mixed with 150 μL of the IS-methanol solution (1 mg/L DBV-d6). The mixture was vortexed for 15 s and then centrifuged at room temperature at 13,000 rpm for 5 min. Subsequently, 50 µL of the clear supernatant was transferred to an autosampler vial, and a volume of 3 µL was injected into the LC-MS/MS system (Figure 2).
The presented ITD LC-MS/MS method was tested for measuring DBV concentrations in patients receiving DBV for the treatment of long-term subacute or chronic documented Gram-positive infections (namely osteoarticular infections, endocarditis, and endovascular prosthetic infections). In our study, DBV treatment was started according to the internal protocol consisting of two 1500 mg doses one week apart. Requirement for additional doses was assessed by the treating physician after at least four weeks according to the underlying clinical conditions of each patient. […] The number of samples assessed was 520. Samples for Dalbavancin TDM were usually collected at predefined timeframes between 21 and 35 days after first administration. […] Blood samples respected the cold chain delivery and were processed either immediately after delivery or after freezing at −80 °C until analysis, depending on case-by-case.

CN[C@H]1C(=O)N[C@@H]2Cc3ccc(cc3)Oc3cc4cc(c3O[C@@H]3O[C@H](C(=O)O)[C@@H](O)[C@H](O)[C@H]3NC(=O)CCCCCCCCC(C)C)Oc3ccc(cc3Cl)[C@@H](O)[C@@H]3NC(=O)[C@H](NC(=O)[C@@H]4NC(=O)[C@@H](NC2=O)c2cc(cc(O)c2Cl)Oc2cc1ccc2O)c1ccc(O)c(c1)-c1c(O[C@H]2O[C@H](CO)[C@@H](O)[C@H](O)[C@@H]2O)cc(O)cc1[C@@H](C(=O)NCCCN(C)C)NC3=O [DBV, Dalbavancin]
plasma protein binding [1]: very high | change of DBV concentrations after freeze and thaw cycles [2]: decreased | Avg Accuracy (Bias%) ([2]; human plasma samples, 1 freeze-thaw cycle (−80 °C to 25 °C), Low QC 7 mg/L, vs nominal, LC-MS/MS): 14.8% | Avg Accuracy (Bias%) ([3]; extract (MeOH:H2O protein precipitation of plasma) kept in autosampler at 10 °C, post 24 h, Low QC 7 mg/L, acceptance ±15%): 22.1% | Avg Accuracy (Bias%) ([3]; extract in freezer (−80 °C) post 24 h, High QC 280 mg/L): 12.3% | Avg Accuracy (Bias%) ([3]; extract in freezer (−80 °C) post 24 h, Low QC 7 mg/L): 16.8% | Avg Accuracy (Bias%) ([3]; extract in freezer (−80 °C) post 24 h, Medium QC 70 mg/L): 6.7% | Avg Accuracy (Bias%) ([3]; extract kept in autosampler at 10 °C, post 24 h, High QC 280 mg/L): 14.8% | Avg Accuracy (Bias%) ([3]; extract kept in autosampler at 10 °C, post 24 h, Medium QC 70 mg/L): 9.4% | time for which autosampler extracts were stable ([3]; extracts kept at 10 °C): at least 24 h | DBV concentration, first quartile [4]: 11 mg/L | DBV concentration, maximum [4]: 77.0 mg/L | DBV concentration, minimum [4]: 2.0 mg/L | DBV concentration, third quartile [4]: 31.8 mg/L | DBV concentration, median ([4]; 1500 mg): 18 mg/L
